Structures can show the parent of a compound that is named as a salt. Where two headings read alike, the source gives them in different places.
Target: T1, hNaV1.7 (Homo sapiens, UniProt Q15858)
T1 construct: expressed in transfected cells; host or cells: HEK293
Assay: QPatch NaV1.7 assay (whole-cell patch clamp, QPatch16x)
Format: cell-based
Details: HEK293-hNaV1.7 cells
Method in brief: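 Automated whole-cell recordings in hNaV1.7-expressing HEK293 cells, holding at either −90 mV (mostly closed channels) or the half-inactivation voltage. Compounds applied cumulatively at four concentrations for 120 s each; peak current on 20 ms depolarisation to 0 mV fitted by Hill equation to yield pIC50.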

[1] = holding voltage V1/2 SSI (half of channels inactivated), read-out: QP Nav1.7 SSI vhalf pIC50 (converted)
[2] = holding voltage −90 mV (most channels closed), read-out: QP Nav1.7 −90 mV pIC50 (converted)

T1 sequence (Q15858 whole entry): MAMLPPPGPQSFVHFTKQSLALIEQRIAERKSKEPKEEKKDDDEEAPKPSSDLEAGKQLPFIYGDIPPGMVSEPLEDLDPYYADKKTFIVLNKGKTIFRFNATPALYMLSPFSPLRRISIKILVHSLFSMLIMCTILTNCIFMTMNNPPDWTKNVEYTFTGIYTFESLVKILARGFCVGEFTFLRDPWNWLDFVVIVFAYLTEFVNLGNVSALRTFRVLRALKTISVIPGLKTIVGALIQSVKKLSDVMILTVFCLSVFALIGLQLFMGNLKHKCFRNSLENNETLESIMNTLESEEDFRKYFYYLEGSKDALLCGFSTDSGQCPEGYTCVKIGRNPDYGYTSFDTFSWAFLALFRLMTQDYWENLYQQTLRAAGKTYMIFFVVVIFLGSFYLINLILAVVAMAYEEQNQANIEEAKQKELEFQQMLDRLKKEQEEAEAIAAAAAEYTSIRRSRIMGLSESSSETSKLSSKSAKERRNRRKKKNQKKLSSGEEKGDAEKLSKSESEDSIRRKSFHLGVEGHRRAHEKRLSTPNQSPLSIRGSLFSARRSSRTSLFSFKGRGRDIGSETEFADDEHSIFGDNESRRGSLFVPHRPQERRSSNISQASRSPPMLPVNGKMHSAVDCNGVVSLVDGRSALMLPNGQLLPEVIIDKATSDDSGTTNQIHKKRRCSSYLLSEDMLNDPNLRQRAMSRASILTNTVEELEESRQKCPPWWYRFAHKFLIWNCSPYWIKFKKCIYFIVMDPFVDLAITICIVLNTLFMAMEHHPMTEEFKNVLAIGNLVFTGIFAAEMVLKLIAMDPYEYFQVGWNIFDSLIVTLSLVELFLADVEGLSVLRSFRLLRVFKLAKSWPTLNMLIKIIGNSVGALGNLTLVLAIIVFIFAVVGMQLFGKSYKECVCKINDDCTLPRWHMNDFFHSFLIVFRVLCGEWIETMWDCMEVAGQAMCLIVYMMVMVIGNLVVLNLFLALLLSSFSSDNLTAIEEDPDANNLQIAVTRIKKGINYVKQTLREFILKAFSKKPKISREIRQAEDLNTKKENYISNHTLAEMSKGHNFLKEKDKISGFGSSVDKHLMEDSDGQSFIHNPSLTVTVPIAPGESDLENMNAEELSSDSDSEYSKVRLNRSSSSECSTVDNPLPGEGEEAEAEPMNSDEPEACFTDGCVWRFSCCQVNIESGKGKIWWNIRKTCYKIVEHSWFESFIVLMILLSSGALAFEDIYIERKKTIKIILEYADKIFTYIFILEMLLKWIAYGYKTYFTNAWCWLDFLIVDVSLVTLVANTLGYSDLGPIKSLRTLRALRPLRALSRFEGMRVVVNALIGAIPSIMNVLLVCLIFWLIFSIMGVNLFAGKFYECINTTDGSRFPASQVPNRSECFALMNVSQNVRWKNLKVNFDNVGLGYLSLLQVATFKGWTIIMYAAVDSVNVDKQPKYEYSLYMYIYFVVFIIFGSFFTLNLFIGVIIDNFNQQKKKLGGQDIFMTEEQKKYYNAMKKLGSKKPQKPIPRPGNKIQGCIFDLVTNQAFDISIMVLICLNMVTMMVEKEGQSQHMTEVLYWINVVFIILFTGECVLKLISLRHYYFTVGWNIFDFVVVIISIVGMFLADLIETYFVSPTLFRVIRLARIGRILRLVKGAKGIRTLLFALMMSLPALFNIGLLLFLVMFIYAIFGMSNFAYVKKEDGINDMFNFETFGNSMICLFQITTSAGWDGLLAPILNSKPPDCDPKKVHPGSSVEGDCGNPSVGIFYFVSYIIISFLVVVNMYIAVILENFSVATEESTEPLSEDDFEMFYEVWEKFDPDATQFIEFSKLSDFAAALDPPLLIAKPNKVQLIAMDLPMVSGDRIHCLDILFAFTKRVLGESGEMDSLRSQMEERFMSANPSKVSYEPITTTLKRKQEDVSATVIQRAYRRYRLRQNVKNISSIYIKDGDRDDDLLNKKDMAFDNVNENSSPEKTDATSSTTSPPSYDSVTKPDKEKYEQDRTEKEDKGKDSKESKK

| SMILES | IC50 [1] [µM] | IC50 [2] [µM] |
| --- | --- | --- |
| CCOc1ccc(F)c(-c2cc([C@H]3CC[C@]4(CCN(C)C4=O)N3)nc(C)c2C)c1 [Example 141, (2R,5R)-2-[4-(5-Ethoxy-2-fluoro-phenyl)-5,6-dimethyl-2-pyridyl]-7-methyl-1,7-diazaspiro[4.4]nonan-6-one hydrochloride] | 6.31 | 63.1 |
| CCOc1ccc(F)c(-c2cc([C@@H]3CC[C@@]4(CCN(C)C4=O)N3)nc(C)c2C)c1 [Example 142, (2S,5S)-2-[4-(5-Ethoxy-2-fluoro-phenyl)-5,6-dimethyl-2-pyridyl]-7-methyl-1,7-diazaspiro[4.4]nonan-6-one hydrochloride] | 0.794 | 15.8 |
| CCOc1ccc(F)c(-c2cc([C@@H]3CC[C@]4(CCN(C)C4=O)N3)nc(C)c2C)c1 [Example 143, (2S,5R)-2-[4-(5-Ethoxy-2-fluoro-phenyl)-5,6-dimethyl-2-pyridyl]-7-methyl-1,7-diazaspiro[4.4]nonan-6-one hydrochloride] | 10 | 63.1 |
| CCOc1ccc(F)c(-c2cc([C@H]3CC[C@@]4(CCN(C)C4=O)N3)nc(C)c2C)c1 [Example 144, (2R,5S)-2-[4-(5-Ethoxy-2-fluoro-phenyl)-5,6-dimethyl-2-pyridyl]-7-methyl-1,7-diazaspiro[4.4]nonan-6-one hydrochloride] | 3.98 | 31.6 |
| COc1cnc([C@H]2CC[C@]3(CCN(C)C3=O)N2)cc1-c1ccc(C(F)(F)F)cc1 [Example 152, (2R,5R)-2-[5-Methoxy-4-[4-(trifluoromethyl)phenyl]-2-pyridyl]-7-methyl-1,7-diazaspiro[4.4]nonan-6-one hydrochloride] | 15.8 | 200 |
| COc1cnc([C@@H]2CC[C@]3(CCN(C)C3=O)N2)cc1-c1ccc(C(F)(F)F)cc1 [Example 153, (2S,5R)-2-[5-Methoxy-4-[4-(trifluoromethyl)phenyl]-2-pyridyl]-7-methyl-1,7-diazaspiro[4.4]nonan-6-one hydrochloride] | 12.6 | 158 |
| COc1cnc([C@@H]2CC[C@@]3(CCN(C)C3=O)N2)cc1-c1ccc(C(F)(F)F)cc1 [Example 154, (2S,5S)-2-[5-Methoxy-4-[4-(trifluoromethyl)phenyl]-2-pyridyl]-7-methyl-1,7-diazaspiro[4.4]nonan-6-one hydrochloride] | 12.6 | 100 |
| COc1cnc([C@H]2CC[C@@]3(CCN(C)C3=O)N2)cc1-c1ccc(C(F)(F)F)cc1 [Example 155, (2R,5S)-2-[5-Methoxy-4-[4-(trifluoromethyl)phenyl]-2-pyridyl]-7-methyl-1,7-diazaspiro[4.4]nonan-6-one hydrochloride] | 3.98 | 39.8 |
| CN1CC[C@@]2(CC[C@H](c3cc(-c4cn(C)c5ccccc45)ccn3)N2)C1=O [Example 157, (2R,5S)-7-Methyl-2-[4-(1-methyl-1H-indol-3-yl)-pyridin-2-yl]-1,7-diaza-spiro[4.4]nonan-6-one hydrochloride] | 25.1 | 79.4 |
| CN1CC[C@@]2(CC[C@H](c3cc(-c4cc(N5CCCC5=O)ccc4F)ccn3)N2)C1=O [Example 160, (2R,5S)-2-[4-[2-Fluoro-5-(2-oxopyrrolidin-1-yl)phenyl]-2-pyridyl]-7-methyl-1,7-diazaspiro[4.4]nonan-6-one hydrochloride] | 1580 |  |
| CC(C)Oc1ccc(-c2ccnc([C@@H]3CC[C@@]4(CCN(C)C4=O)N3)c2)cc1 [Example 161, (2S,5S)-2-[4-(4-Isopropoxyphenyl)-2-pyridyl]-7-methyl-1,7-diazaspiro[4.4]nonan-6-one hydrochloride] | 39.8 | 126 |
| CC(C)Oc1ccc(-c2ccnc([C@H]3CC[C@@]4(CCN(C)C4=O)N3)c2)cc1 [Example 162, (2R,5S)-2-[4-(4-Isopropoxyphenyl)-2-pyridyl]-7-methyl-1,7-diazaspiro[4.4]nonan-6-one hydrochloride] | 3.98 | 15.8 |
| CN1CC[C@@]2(CC[C@H](c3cc(-c4cccc5cccnc45)ccn3)N2)C1=O [Example 164, (2R,5S)-7-Methyl-2-[4-(8-quinolyl)-2-pyridyl]-1,7-diazaspiro[4.4]nonan-6-one hydrochloride] | 39.8 | 1260 |
| CN1CC[C@@]2(CC[C@H](c3cc(-c4cccc(Cl)c4C#N)ccn3)N2)C1=O [Example 165, 2-Chloro-6-[2-[(2R,5S)-7-methyl-6-oxo-1,7-diazaspiro[4.4]nonan-2-yl]-4-pyridyl]benzonitrile hydrochloride] | 100 | 158 |
| CN1CC[C@@]2(CC[C@H](c3cc(-c4ccc5c(c4)CCO5)ccn3)N2)C1=O [Example 166, (2R,5S)-2-[4-(2,3-Dihydrobenzofuran-5-yl)-2-pyridyl]-7-methyl-1,7-diazaspiro[4.4]nonan-6-one hydrochloride] | 126 | 2000 |
| COCc1cccc(-c2ccnc([C@H]3CC[C@@]4(CCN(C)C4=O)N3)c2)c1 [Example 168, (2R,5S)-2-[4-[3-(methoxymethyl)phenyl]-2-pyridyl]-7-methyl-1,7-diazaspiro[4.4]nonan-6-one hydrochloride] | 158 | 316 |
| CC(C)CCn1cc(-c2ccnc([C@H]3CC[C@@]4(CCN(C)C4=O)N3)c2)cn1 [Example 170, (2R,5S)-2-[4-(1-Isopentylpyrazol-4-yl)-2-pyridyl]-7-methyl-1,7-diazaspiro[4.4]nonan-6-one hydrochloride] | 25.1 | 398 |

Other lines, results leading:

| IC50 [1] [µM] | IC50 [2] [µM] | SMILES |
| --- | --- | --- |
| 6.31 | 79.4 | CCOc1ccc(F)c(-c2ccnc([C@@H]3CC[C@]4(CCN(C)C4=O)N3)c2)c1 [Example 145, (2S,5R)-2-[4-(5-Ethoxy-2-fluoro-phenyl)-2-pyridyl]-7-methyl-1,7-diazaspiro[4.4]nonan-6-one hydrochloride] |
| 2 | 31.6 | CCOc1ccc(F)c(-c2ccnc([C@H]3CC[C@]4(CCN(C)C4=O)N3)c2)c1 [Example 146, (2R,5R)-2-[4-(5-Ethoxy-2-fluoro-phenyl)-2-pyridyl]-7-methyl-1,7-diazaspiro[4.4]nonan-6-one hydrochloride] |
| 3.16 | 50.1 | CCOc1ccc(F)c(-c2ccnc([C@@H]3CC[C@@]4(CCN(C)C4=O)N3)c2)c1 [Example 147, (2S,5S)-2-[4-(5-Ethoxy-2-fluoro-phenyl)-2-pyridyl]-7-methyl-1,7-diazaspiro[4.4]nonan-6-one hydrochloride] |
| 31.6 | 398 | CCOc1cc(-c2ccnc([C@@H]3CC[C@@]4(CCN(C)C4=O)N3)c2)c(F)cc1F [Example 148, (2S,5S)-2-[4-(5-Ethoxy-2,4-difluoro-phenyl)-2-pyridyl]-7-methyl-1,7-diazaspiro[4.4]nonan-6-one hydrochloride] |
| 25.1 | 398 | CCOc1cc(-c2ccnc([C@H]3CC[C@@]4(CCN(C)C4=O)N3)c2)c(F)cc1F [Example 149, (2R,5S)-2-[4-(5-Ethoxy-2,4-difluoro-phenyl)-2-pyridyl]-7-methyl-1,7-diazaspiro[4.4]nonan-6-one hydrochloride] |
| 12.6 | 126 | CCOc1cc(-c2ccnc([C@@H]3CC[C@@]4(CCN(C)C4=O)N3)c2)c(F)cc1C [Example 150, (2S,5S)-2-[4-(5-Ethoxy-2-fluoro-4-methyl-phenyl)-2-pyridyl]-7-methyl-1,7-diazaspiro[4.4]nonan-6-one hydrochloride] |
| 15.8 | 100 | CCOc1cc(-c2ccnc([C@H]3CC[C@@]4(CCN(C)C4=O)N3)c2)c(F)cc1C [Example 151, (2R,5S)-2-[4-(5-Ethoxy-2-fluoro-4-methyl-phenyl)-2-pyridyl]-7-methyl-1,7-diazaspiro[4.4]nonan-6-one hydrochloride] |
| 20 | 126 | CN1CC[C@@]2(CC[C@H](c3cc(-c4ccc(OC(F)F)cc4F)ccn3)N2)C1=O [Example 156, (2R,5S)-2-[4-(4-Difluoromethoxy-2-fluoro-phenyl)-pyridin-2-yl]-7-methyl-1,7-diaza-spiro[4.4]nonan-6-one hydrochloride] |
| 63.1 | 1260 | CCOc1c(F)cccc1-c1ccnc([C@H]2CC[C@@]3(CCN(C)C3=O)N2)c1 [Example 158, (2R,5S)-2-[4-(2-Ethoxy-3-fluoro-phenyl)-2-pyridyl]-7-methyl-1,7-diazaspiro[4.4]nonan-6-one hydrochloride] |
| 7.94 | 31.6 | CC(C)c1ccc(F)c(-c2ccnc([C@H]3CC[C@@]4(CCN(C)C4=O)N3)c2)c1 [Example 159, (2R,5S)-2-[4-(2-Fluoro-5-isopropyl-phenyl)-2-pyridyl]-7-methyl-1,7-diazaspiro[4.4]nonan-6-one hydrochloride] |
|  | 7940 | COc1ccc(-c2ccnc([C@H]3CC[C@@]4(CCN(C)C4=O)N3)c2)cc1OC [Example 163, (2R,5S)-2-[4-(3,4-Dimethoxyphenyl)-2-pyridyl]-7-methyl-1,7-diazaspiro[4.4]nonan-6-one hydrochloride] |
| 39.8 | 39.8 | CCOc1ccc(-c2ccnc([C@H]3CC[C@@]4(CCN(C)C4=O)N3)c2)cc1C [Example 167, (2R,5S)-2-[4-(4-Ethoxy-3-methyl-phenyl)-2-pyridyl]-7-methyl-1,7-diazaspiro[4.4]nonan-6-one hydrochloride] |
| 6.31 | 126 | CCOc1cc(F)ccc1-c1ccnc([C@H]2CC[C@@]3(CCN(C)C3=O)N2)c1 [Example 169, (2R,5S)-2-[4-(2-Ethoxy-4-fluoro-phenyl)-2-pyridyl]-7-methyl-1,7-diazaspiro[4.4]nonan-6-one hydrochloride] |

Source: US9376436B2, “2-(pyridin-2yl)-1, 7-diaza-spiro [4.4] nonane-6-one compound as voltage-gated sodium channels modulators” (CONVERGENCE PHARMACEUTICALS LIMITED, priority 2011, dated 2016)
